Experimental data from patent US20040255344A1, “Rodent with urinary disturbance and method of constructing the same, and method of screening remedy for urinary disturbance using the rodent” (priority 2001, published 2004).
Structures can show the parent of a compound that is named as a salt.

System: urinary dysfunction model rat
Assay: screening test in urinary dysfunction model rat (superior colliculus lesion), cystometrography
Type: in vivo
Settings: 0.3 mg/kg iv, 5 minutes after intravenous administration, FIG. 9
From the text: FIG. 3 indicates a schematic diagram of a system to measure the status of accelerated urinary reflex used in the present invention.
Here, a cystometrogram is made when detecting the urinary reflex by putting a catheter (not indicated in the diagram) in the bladder, and continuously measuring the changes of internal bladder pressure through the said catheter.
Further, the volume of the bladder can be calculated from the results of this cystometrogram as follows. Specifically, when infusing physiological saline into the bladder at a constant rate, the volume of the bladder can be calculated by multiplying the time required to reach the threshold where the urinary reflex starts by the fixed rate.
An urinary dysfunction model rat was produced by the following method. […]
After the operation was complete and the animals had awakened from the anesthesia, the post-operative rat was measured using cystometrography based on the system indicated in FIG. 3, and the status of accelerated urinary reflex was confirmed.
Using a control rat and the rat produced under adequate conditions based on the present invention, the presence of a therapeutic effect was assessed after intravenously administering oxybutynin hydrochloride (0.3 mg/kg iv:iv means intravenous injection, and iv means the same in FIG. 9.), which is a candidate compound as a therapeutic agent for urinary dysfunction. […]

CCN(CC)CC#CCOC(=O)C(O)(c1ccccc1)C1CCCCC1 (centres unmarked) [oxybutynin hydrochloride]
bladder volume: increased
level of the urinary dysfunction: improved
